Data on 16 molecules can be found in patent US7531482B2, “Thieno-pyrimidine compounds having fungicidal activity” (Dow AgroSciences LLC, priority 2005, dated 2009).

Read-outs that look alike come from different tables or passages of the source.

What all share (assay type): in vivo
Test [1] relates to Leptosphaeria nodorum. The test can be described thus: Glume Blotch of Wheat (LEPTNO) whole-plant disease control test. The settings on record: Parastagonospora nodorum, foliar, read-out: LEPTNO disease control.
Test [2] relates to Erysiphe cichoracaerum. The test can be described thus: Cucumber Powdery Mildew (ERYSCI) whole-plant disease control test. The settings on record: Erysiphe, foliar, read-out: ERYSCI disease control.
Test [3] has as its system Puccinia recondita tritici. The test can be described thus: Leaf Rust of Wheat (PUCCRT) whole-plant disease control test. The settings on record: Puccinia recondita, foliar, read-out: PUCCRT disease control.
For test [4], the system named is Colletotricum lagenarium. The test can be described thus: Cucumber Anthracnose (COLLLA) whole-plant disease control test. The settings on record: Cucumis sativus, foliar, read-out: COLLLA disease control.
In test [5] the test system is Mycosphaerella graminicola=Septoria tritici. The test can be described thus: Speckled Leaf Blotch of Wheat (SEPTTR) whole-plant disease control test. The settings on record: Mycosphaerella, foliar, read-out: SEPTTR disease control.
Test [6] relates to Magnaporthe grisea=Pyricularia oryzae. The test can be described thus: whole plant or invertebrate. The settings on record: Pyricularia oryzae, foliar, read-out: PYRIOR disease control, 200 ppm applied to foliage of rice; inoculated one day after treatment.
Test [7] concerns Phytophthora infestans. The test can be described thus: whole plant or invertebrate. The settings on record: Phytophthora infestans, in Solanum lycopersicum, foliar, read-out: PHYTIN disease control, 200 ppm applied to foliage of tomato; inoculated one day after treatment.
[8] abbreviates: 200 ppm applied to foliage of wheat, inoculated one day after treatment.
Where [9] appears, read: 200 ppm applied to foliage of cucumber, inoculated one day after treatment.
[10] abbreviates: 75 ppm applied to foliage of wheat.

With `COc1cc(C#N)cc(Oc2ccc(CCNc3ncnc4scc(Cl)c34)cc2)n1` [Compound 81], the pest or weed control at 200 ppm fell in the range of 80 to 100% in test [1] (setting [8]); 50 to 79% in test [2] (setting [9]); 80 to 100% in test [3] (setting [8]); 50 to 79% in test [4] (setting [9]); 80 to 100% in test [6]; 0 to 49% in test [7]. For the same molecule, in test [5] (setting [10]), the pest or weed control at 75 ppm was 50 to 79%.

`Cc1cccc(Oc2ccc(CCNc3ncnc4scc(Cl)c34)cc2)n1` [Compound 85]: the pest or weed control at 200 ppm in test [1] (setting [8]) was 80 to 100%; in test [2] (setting [9]) it was 80 to 100%; in test [3] (setting [8]), 80 to 100%; in test [4] (setting [9]) it was 50 to 79%; in test [6], 80 to 100%; in test [7], 80 to 100%. The pest or weed control at 75 ppm in test [5] (setting [10]) was in the range of 80 to 100%.

On to `Clc1csc2ncnc(NCCc3ccc(Oc4ncnc5scnc45)cc3)c12` [Compound 86], for which the pest or weed control at 200 ppm in test [1] (setting [8]) lay in the range of 50 to 79%; in test [2] (setting [9]), 50 to 79%; in test [3] (setting [8]), 80 to 100%; in test [4] (setting [9]), 0 to 49%; in test [6] it was 50 to 79%; in test [7], 80 to 100%. For the same molecule, the pest or weed control at 75 ppm in test [5] (setting [10]) lay in the range of 80 to 100%.

In the case of `COc1cc(Oc2ccc(CCNc3ncnc4scc(Cl)c34)cc2)c(Br)cn1` [Compound 87], the pest or weed control at 200 ppm was in the range of 50 to 79% in test [1] (setting [8]); 80 to 100% in test [2] (setting [9]); 80 to 100% in test [3] (setting [8]); 0 to 49% in test [4] (setting [9]); 80 to 100% in test [6]; 50 to 79% in test [7]. Besides, the pest or weed control at 75 ppm in test [5] (setting [10]) was in the range of 50 to 79%.

Take `COc1cc(C(F)(F)F)cc(Oc2ccc(CC(C)Nc3ncnc4scc(Cl)c34)cc2)n1` (stereo not shown) [Compound 88]: the pest or weed control at 200 ppm fell in the range of 0 to 49% in test [1] (setting [8]); 80 to 100% in test [2] (setting [9]); 80 to 100% in test [3] (setting [8]); 50 to 79% in test [4] (setting [9]); 80 to 100% in test [6]; 0 to 49% in test [7]. For the same molecule, the pest or weed control at 75 ppm in test [5] (setting [10]) was in the range of 50 to 79%.

Take `Clc1csc2ncnc(NCCc3ccc(Oc4cccc(-n5cccn5)n4)cc3)c12` [Compound 89]: the pest or weed control at 200 ppm in test [1] (setting [8]) lay within 80 to 100%; in test [2] (setting [9]) it was 80 to 100%; in test [3] (setting [8]), 80 to 100%; in test [4] (setting [9]), 0 to 49%; in test [6], 80 to 100%; in test [7], 0 to 49%. The pest or weed control at 75 ppm in test [5] (setting [10]) fell in the range of 50 to 79%.

Regarding `CS(=O)(=O)c1cccc(Oc2ccc(CCNc3ncnc4scc(Cl)c34)cc2)n1` [Compound 91], the pest or weed control at 200 ppm in test [1] (setting [8]) fell in the range of 80 to 100%; in test [2] (setting [9]), 50 to 79%; in test [3] (setting [8]) it was 80 to 100%; in test [4] (setting [9]), 0 to 49%; in test [6], 80 to 100%; in test [7], 80 to 100%. Besides, the pest or weed control at 75 ppm in test [5] (setting [10]) lay in the range of 0 to 49%.

For `CC(Cc1ccc(Oc2c(Cl)cnc(C(F)(F)F)c2Cl)cc1)Nc1ncnc2scc(Cl)c12` (stereo not shown) [Compound 94], the pest or weed control at 200 ppm in test [1] (setting [8]) is 0 to 49%; in test [2] (setting [9]), 50 to 79%; in test [3] (setting [8]), 80 to 100%; in test [4] (setting [9]), 50 to 79%; in test [6], 80 to 100%; in test [7], 0 to 49%. Further, in test [5] (setting [10]), the pest or weed control at 75 ppm is 0 to 49%.

As to `CS(=O)(=O)c1cc(Oc2ccc(CCNc3ncnc4scc(Cl)c34)cc2)ccn1` [Compound 95], the pest or weed control at 200 ppm lay within 80 to 100% in test [1] (setting [8]); 0 to 49% in test [2] (setting [9]); 80 to 100% in test [3] (setting [8]); 50 to 79% in test [4] (setting [9]); 80 to 100% in test [6]; 80 to 100% in test [7]. In addition, the pest or weed control at 75 ppm in test [5] (setting [10]) was 50 to 79%.

As for `N#CCc1cccc(Oc2ccc(CCNc3ncnc4scc(Cl)c34)cc2)n1` [Compound 97], the pest or weed control at 200 ppm lay in the range of 80 to 100% in test [1]; 0 to 49% in test [2]; 80 to 100% in test [3]; 50 to 79% in test [4]; 80 to 100% in test [6]; 80 to 100% in test [7]. For the same molecule, the pest or weed control at 75 ppm in test [5] lay within 50 to 79%.

For `O=C(Nc1ccc(CCNc2ncnc3scc(Cl)c23)cc1)c1ccnc(Cl)c1` [Compound 99, 2-Chloro-N-{4-[2-(5-chlorothieno[2,3,-d]pyrimidin-4-ylamino)ethyl]phenyl}isonicotinamide], the pest or weed control at 200 ppm in test [1] (setting [8]) is 0 to 49%; in test [2] (setting [9]), 0 to 49%; in test [3] (setting [8]), 80 to 100%; in test [4] (setting [9]), 50 to 79%; in test [6] it was 80 to 100%; in test [7] it was 50 to 79%. Further, the pest or weed control at 75 ppm in test [5] (setting [10]) was 0 to 49%.

Consider `N#Cc1nc(F)c(F)c(Oc2ccc(CCNc3ncnc4scc(Cl)c34)cc2)c1F` [Compound 103], for which the pest or weed control at 200 ppm lay in the range of 50 to 79% in test [1] (setting [8]); 0 to 49% in test [2] (setting [9]); 50 to 79% in test [3] (setting [8]); 50 to 79% in test [4] (setting [9]); 50 to 79% in test [6]; 0 to 49% in test [7]. The pest or weed control at 75 ppm in test [5] (setting [10]) is 0 to 49%.

For the molecule `Clc1ccc(COc2ccc(CCNc3ncnc4scc(Cl)c34)cc2)cn1` [Compound 104], the pest or weed control at 200 ppm in test [1] (setting [8]) lay within 0 to 49%; in test [2] (setting [9]) it was 0 to 49%; in test [3] (setting [8]) it was 80 to 100%; in test [4] (setting [9]), 50 to 79%; in test [6], 80 to 100%; in test [7], 0 to 49%. The pest or weed control at 75 ppm in test [5] (setting [10]) lay within 50 to 79%.

As for `FC(F)(F)c1ccc(COc2ccc(CCNc3ncnc4scc(Cl)c34)cc2)o1` [Compound 105], the pest or weed control at 200 ppm lay in the range of 0 to 49% in test [1] (setting [8]); 0 to 49% in test [2] (setting [9]); 50 to 79% in test [3] (setting [8]); 0 to 49% in test [4] (setting [9]); 80 to 100% in test [6]; 0 to 49% in test [7]. Besides, the pest or weed control at 75 ppm in test [5] (setting [10]) fell in the range of 0 to 49%.

On to `CC(C)OC(=O)c1cnc(Oc2ccc(CCNc3ncnc4scc(Cl)c34)cc2)c(Cl)c1` [Compound 106], for which the pest or weed control at 200 ppm in test [1] (setting [8]) fell in the range of 0 to 49%; in test [2] (setting [9]), 0 to 49%; in test [3] (setting [8]), 80 to 100%; in test [4] (setting [9]), 0 to 49%; in test [6], 80 to 100%; in test [7], 0 to 49%. In test [5] (setting [10]), the pest or weed control at 75 ppm lay in the range of 50 to 79%.

Consider `CC(C)c1cncnc1COc1ccc(CCNc2ncnc3scc(Cl)c23)cc1` [Compound 107], for which the pest or weed control at 200 ppm in test [1] (setting [8]) was 0 to 49%; in test [2] (setting [9]), 0 to 49%; in test [3] (setting [8]), 80 to 100%; in test [4] (setting [9]), 0 to 49%; in test [6] it was 80 to 100%; in test [7] it was 80 to 100%. Moreover, the pest or weed control at 75 ppm in test [5] (setting [10]) lay within 50 to 79%.
